# Data from BindingDB's records for doi:10.1021/acs.jmedchem.6b00330 (University of Bonn, 2016).
# What was measured:
# [1] = molecular target: T1, Broad substrate specificity ATP-binding cassette transporter ABCG2 (Homo sapiens, UniProt Q9UNQ0); assay: Inhibition of c-terminal GFP-tagged human ABCG2 expressed in MDCK2 cells assessed as enhancement of SN-38-induced cytotoxicity incubated for 72 hrs by MTT assay
# T1 sequence (Q9UNQ0 whole entry): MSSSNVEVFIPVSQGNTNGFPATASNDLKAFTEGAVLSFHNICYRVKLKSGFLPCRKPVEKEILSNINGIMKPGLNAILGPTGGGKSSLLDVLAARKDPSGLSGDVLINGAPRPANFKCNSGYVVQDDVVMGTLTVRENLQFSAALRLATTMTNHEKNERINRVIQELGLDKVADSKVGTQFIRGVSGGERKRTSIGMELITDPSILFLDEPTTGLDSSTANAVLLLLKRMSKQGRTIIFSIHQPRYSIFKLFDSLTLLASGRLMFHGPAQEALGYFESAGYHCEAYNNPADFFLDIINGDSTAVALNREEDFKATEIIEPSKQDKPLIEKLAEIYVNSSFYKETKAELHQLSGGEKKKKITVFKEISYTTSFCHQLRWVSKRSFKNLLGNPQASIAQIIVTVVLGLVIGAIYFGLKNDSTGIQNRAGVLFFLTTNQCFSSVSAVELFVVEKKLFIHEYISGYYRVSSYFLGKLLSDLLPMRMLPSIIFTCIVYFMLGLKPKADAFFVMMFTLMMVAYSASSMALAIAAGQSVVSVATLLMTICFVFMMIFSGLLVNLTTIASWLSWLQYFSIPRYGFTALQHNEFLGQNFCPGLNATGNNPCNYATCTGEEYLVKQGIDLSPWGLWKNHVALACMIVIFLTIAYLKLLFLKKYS
# [2] = molecular target: T1, Broad substrate specificity ATP-binding cassette transporter ABCG2; assay: Inhibition of c-terminal GFP-tagged human ABCG2 expressed in MDCK2 cells assessed as enhancement of Hoechst 33342-induced cytotoxicity incubated for 72 hrs by MTT assay
# [3] = Inhibition of c-terminal GFP-tagged human ABCG2 expressed in MDCK2 cells assessed as enhancement of Hoechst 33342-induced cytotoxicity incubated for 72 hrs by MTT assay
# [4] = Inhibition of c-terminal GFP-tagged human ABCG2 expressed in MDCK2 cells assessed as enhancement of SN-38-induced cytotoxicity incubated for 72 hrs by MTT assay
Structure (SMILES),EC50 [1],EC50 [2],EC50 [3],EC50 [4]
O=[N+]([O-])c1cc(Nc2nc(-c3ccccc3)nc3ccccc23)ccc1O,120 nM,130 nM,–,–
N#Cc1ccc(Nc2nc(-c3ccccc3)nc3ccccc23)cc1,–,–,53 nM,41 nM
